Laboratory results: ChEMBL document CHEMBL3132787, “Polyhydroxylated pyrrolidine and 2-oxapyrrolizidine as glycosidase inhibitors” (Medchemcomm, 2013)
pKi: −log10 of the molar value.

Legend:
Helix pomatia = experiment: Inhibition of Helix pomatia beta-mannosidase using p-nitrophenyl glycoside as substrate assessed as residual activity at 1 mM after 25 mins by spectrophotometer analysis
[1] = tested on: Geobacillus stearothermophilus; experiment: Inhibition of Bacillus stearothermophilus alpha-glucosidase using p-nitrophenyl glycoside as substrate assessed as residual activity at 1 mM after 25 mins by spectrophotometer analysis
Canavalia ensiformis = experiment: Inhibition of jack bean alpha-mannosidase using p-nitrophenyl glycoside as substrate assessed as residual activity at 1 mM after 25 mins by spectrophotometer analysis
Prunus dulcis = experiment: Inhibition of sweet almond beta-glucosidase using p-nitrophenyl glycoside as substrate assessed as residual activity at 1 mM after 25 mins by spectrophotometer analysis
[2] = molecular target: Alpha-galactosidase (Coffea arabica) (UniProt Q42656); experiment: Inhibition of green coffee bean alpha-galactosidase using p-nitrophenyl glycoside as substrate assessed as residual activity at 1 mM after 25 mins by spectrophotometer analysis
Chain of Alpha-galactosidase (Coffea arabica) (Q42656 16-378 limits assumed): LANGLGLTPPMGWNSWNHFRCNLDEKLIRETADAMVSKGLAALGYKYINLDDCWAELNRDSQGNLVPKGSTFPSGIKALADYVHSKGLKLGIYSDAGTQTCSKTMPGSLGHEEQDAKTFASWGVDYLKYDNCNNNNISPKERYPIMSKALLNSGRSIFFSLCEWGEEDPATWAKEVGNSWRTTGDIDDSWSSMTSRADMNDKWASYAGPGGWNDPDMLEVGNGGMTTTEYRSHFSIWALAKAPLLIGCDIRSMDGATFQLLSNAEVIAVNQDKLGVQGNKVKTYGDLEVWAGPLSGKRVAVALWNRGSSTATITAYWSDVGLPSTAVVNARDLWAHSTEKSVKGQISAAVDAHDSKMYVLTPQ

[3] = molecular target: Beta-galactosidase (Escherichia coli) (UniProt Q8VNN2); experiment: Inhibition of Escherichia coli beta-galactosidase using p-nitrophenyl glycoside as substrate assessed as residual activity at 1 mM after 25 mins by spectrophotometer analysis
Chain of Beta-galactosidase (Escherichia coli) (Q8VNN2 whole entry, looked up): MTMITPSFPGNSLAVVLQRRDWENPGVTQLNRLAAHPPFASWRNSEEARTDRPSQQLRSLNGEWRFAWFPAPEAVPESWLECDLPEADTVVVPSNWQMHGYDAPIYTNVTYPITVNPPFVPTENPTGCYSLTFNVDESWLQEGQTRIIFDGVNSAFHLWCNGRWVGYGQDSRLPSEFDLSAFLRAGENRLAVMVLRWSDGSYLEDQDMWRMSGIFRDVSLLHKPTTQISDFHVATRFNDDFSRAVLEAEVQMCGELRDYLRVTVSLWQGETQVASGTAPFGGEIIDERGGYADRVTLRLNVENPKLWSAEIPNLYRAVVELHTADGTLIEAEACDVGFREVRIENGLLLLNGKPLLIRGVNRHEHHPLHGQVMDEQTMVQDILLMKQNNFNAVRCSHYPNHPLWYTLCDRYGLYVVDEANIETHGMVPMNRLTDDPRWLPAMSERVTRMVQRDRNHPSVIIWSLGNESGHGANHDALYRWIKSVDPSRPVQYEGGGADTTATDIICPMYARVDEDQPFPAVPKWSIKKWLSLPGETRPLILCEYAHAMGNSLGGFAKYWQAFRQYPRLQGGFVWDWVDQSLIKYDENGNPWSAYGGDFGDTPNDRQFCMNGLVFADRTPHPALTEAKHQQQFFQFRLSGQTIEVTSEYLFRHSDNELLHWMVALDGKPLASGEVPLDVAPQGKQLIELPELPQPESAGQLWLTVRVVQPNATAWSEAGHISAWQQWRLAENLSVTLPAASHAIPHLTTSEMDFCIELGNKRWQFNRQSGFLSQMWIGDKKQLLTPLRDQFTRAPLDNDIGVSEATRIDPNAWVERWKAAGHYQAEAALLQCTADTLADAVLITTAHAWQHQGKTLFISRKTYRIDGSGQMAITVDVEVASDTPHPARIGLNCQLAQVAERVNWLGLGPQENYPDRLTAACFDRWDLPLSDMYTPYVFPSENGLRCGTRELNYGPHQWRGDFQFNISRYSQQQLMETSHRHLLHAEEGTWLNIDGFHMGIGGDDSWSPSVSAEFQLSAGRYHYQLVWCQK

Alpha-galactosidase = Alpha-galactosidase (Coffea arabica, UniProt Q42656); experiment: Competitive inhibition of green coffee bean alpha-galactosidase using p-nitrophenyl glycoside as substrate by Lineweaver-Burk plot analysis
Chain of Alpha-galactosidase (Q42656 whole entry): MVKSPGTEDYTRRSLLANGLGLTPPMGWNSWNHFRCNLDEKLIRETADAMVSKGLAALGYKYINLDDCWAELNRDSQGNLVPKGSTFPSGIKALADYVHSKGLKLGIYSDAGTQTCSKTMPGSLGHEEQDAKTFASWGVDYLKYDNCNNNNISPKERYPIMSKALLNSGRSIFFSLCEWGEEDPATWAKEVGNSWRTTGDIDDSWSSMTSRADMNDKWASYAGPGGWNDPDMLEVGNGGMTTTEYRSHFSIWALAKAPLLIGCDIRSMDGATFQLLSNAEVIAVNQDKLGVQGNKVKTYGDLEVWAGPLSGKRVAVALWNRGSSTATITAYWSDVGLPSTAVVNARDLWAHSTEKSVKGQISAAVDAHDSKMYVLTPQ

[4] = Competitive inhibition of sweet almond beta-glucosidase using p-nitrophenyl glycoside as substrate by Lineweaver-Burk plot analysis; parameters: species or system Prunus dulcis

SMILES	Activity (Helix pomatia)	Activity [1]	Activity (Canavalia ensiformis)	Activity (Prunus dulcis)	Activity [2]	Activity [3]	pKi (Alpha-galactosidase)	pKi [4]
O=C(O)[C@@H]1C[C@H](O)[C@@H](CO)N1	99.3%	110%	82%	115%	95.2%	90.7%		
O=C1OC[C@@H]2C[C@H](O)[C@@H](CO)N12	98.7%	39.1%	72.2%	75.7%	5.4%	109%	4.39	
O=P(O)(O)OC[C@@H]1C[C@H](O)[C@@H](CO)N1	100%	97%	76.8%	96.1%	91.9%	114%		
O=C(NCCP(=O)(O)O)[C@@H]1C[C@H](O)[C@@H](CO)N1	93.7%	97.1%	83.9%	83.6%	107%	55.8%		
OC[C@@H]1C[C@H](O)[C@@H](CO)N1	97%	12.8%	102%	1.7%	50.4%	53.5%		4.53
